The numbers were not newly measured in patent US20250213514A1, “STABLE, LIQUID PHARMACEUTICAL COMPOSITIONS COMPRISING MELPHALAN” (GOOD HEALTH, LLC, priority 2022, published 2025), which cites them from elsewhere.

Read-outs that look alike come from different tables or passages of the source.

Take `N[C@@H](Cc1ccc(N(CCCl)CCCl)cc1)C(=O)O` [Melphalan]: the Solubility result by setting is: (in ethanol, methanol) “slightly soluble”; (in propylene glycol and dilute mineral acids) “soluble”; (in water, chloroform, and ether) “practically insoluble”.
